Data as given in ChEMBL document CHEMBL5360655, “Design, Synthesis, and Biological Evaluation of Novel P2X7 Receptor Antagonists for the Treatment of Septic Acute Kidney Injury” (J Med Chem, 2023).
Activity calls are given as the source filed them. No cut-off for these calls is given here.

What was measured:
Mus musculus [1] = test: Reno-protective activity against LPS-induced acute kidney injury C57BL/6J mouse model assessed as decrease in serum […] level at 10 mg/kg, ip administered twice at 30 mins prior to LPS challenge and 8 hrs post-LPS challenge and measured at 16 hrs post-LPS challenge; assay type: functional, organism-based; settings: time 16.5 hrs
[2] = Intrinsic clearance in human liver microsomes; assay type: ADME, Microsome; settings: read-out: CLH
[3] = Oral bioavailability in BALB/c mouse at 10 mg/kg measured for 24 hrs by LC-MS/MS analysis; assay type: ADME, organism-based; settings: in vivo
HEK293 [4] = test: Cytotoxicity against human HEK293 cells transfected with mouse P2X7 receptor assessed as effect on cell viability at 1 to 4 uM incubated for 2 hrs by CCK8 assay; assay type: toxicity, cell-based; settings: hek293, 2 h, dose 1-4 µM
[5] = Half life in mouse liver microsomes; assay type: ADME, Microsome
[6] = Cmax in BALB/c mouse at 10 mg/kg, ip measured for 24 hrs by LC-MS/MS analysis; assay type: ADME, organism-based; parameters: dose 10 mg/kg, time 24 hrs, route ip; settings: in vivo
[7] = Intrinsic clearance in mouse liver microsomes; assay type: ADME, Microsome; settings: read-out: CLH
[8] = Cmax in BALB/c mouse at 10 mg/kg, iv measured for 24 hrs by LC-MS/MS analysis; assay type: ADME, organism-based; parameters: time 24 hrs, dose 10 mg/kg, route iv; settings: in vivo
THP-1 = test: Cytotoxicity against human THP-1 cells assessed as effect on cell viability at 1 to 4 uM incubated for 2 hrs by CCK8 assay; assay type: toxicity, cell-based; settings: thp-1, 2 h, dose 1-4 µM
HEK293 [9] = test: Cytotoxicity against human HEK293 cells transfected with human P2X7 receptor assessed as effect on cell viability at 1 to 4 uM incubated for 2 hrs by CCK8 assay; assay type: toxicity, cell-based; settings: hek293, 2 h, dose 1-4 µM
[10] = molecular target: T1, P2X purinoceptor 7 (Homo sapiens) (UniProt Q99572); test: Antagonist activity at human P2X7 receptor expressed in HEK293 cells assessed as inhibition of ATP-induced receptor pore formation at 200 nM by propidium iodide dye uptake based fluorescence analysis; assay type: cell-based
T1 sequence (whole entry): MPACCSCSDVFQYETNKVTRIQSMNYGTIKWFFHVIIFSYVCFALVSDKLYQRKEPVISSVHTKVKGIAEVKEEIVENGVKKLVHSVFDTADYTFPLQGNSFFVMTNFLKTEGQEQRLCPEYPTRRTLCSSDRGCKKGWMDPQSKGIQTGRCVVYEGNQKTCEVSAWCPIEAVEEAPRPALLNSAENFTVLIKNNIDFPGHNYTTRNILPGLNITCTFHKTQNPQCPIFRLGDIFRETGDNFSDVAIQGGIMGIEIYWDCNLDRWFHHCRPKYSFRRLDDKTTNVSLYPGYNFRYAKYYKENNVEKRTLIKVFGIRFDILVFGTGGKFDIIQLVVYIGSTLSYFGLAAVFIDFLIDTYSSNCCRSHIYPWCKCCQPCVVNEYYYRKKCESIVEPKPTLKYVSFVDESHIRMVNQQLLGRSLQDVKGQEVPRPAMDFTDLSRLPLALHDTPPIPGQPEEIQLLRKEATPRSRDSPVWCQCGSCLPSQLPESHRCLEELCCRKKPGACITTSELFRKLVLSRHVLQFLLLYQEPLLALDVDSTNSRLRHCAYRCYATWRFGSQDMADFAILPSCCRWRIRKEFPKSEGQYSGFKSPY

[11] = Clearance in BALB/c mouse at 10 mg/kg, ip measured for 24 hrs by LC-MS/MS analysis; assay type: ADME, organism-based; settings: in vivo
[12] = Tmax in BALB/c mouse at 10 mg/kg, iv measured for 24 hrs by LC-MS/MS analysis; assay type: ADME, organism-based; settings: in vivo
[13] = Clearance in BALB/c mouse at 10 mg/kg, iv measured for 24 hrs by LC-MS/MS analysis; assay type: ADME, organism-based; settings: in vivo
[14] = Tmax in BALB/c mouse at 10 mg/kg, ip measured for 24 hrs by LC-MS/MS analysis; assay type: ADME, organism-based; settings: in vivo
P2X purinoceptor 7 [15] = molecular target: T2, P2X purinoceptor 7 (Homo sapiens, UniProt Q99572); test: Antagonist activity at human P2X7 receptor expressed in HEK293 cells assessed as inhibition of ATP-induced receptor pore formation by propidium iodide dye uptake based fluorescence analysis; assay type: cell-based
T2 sequence (Q99572 whole entry): T1 sequence (whole entry)

[16] = molecular target: T3, P2X purinoceptor 7 (Mus musculus) (UniProt Q9Z1M0); test: Antagonist activity at mouse P2X7 receptor expressed in HEK293 cells assessed as inhibition of ATP-induced receptor pore formation at 1 uM by propidium iodide dye uptake based fluorescence analysis; assay type: cell-based; settings: filed as antagonist
T3 sequence (whole entry): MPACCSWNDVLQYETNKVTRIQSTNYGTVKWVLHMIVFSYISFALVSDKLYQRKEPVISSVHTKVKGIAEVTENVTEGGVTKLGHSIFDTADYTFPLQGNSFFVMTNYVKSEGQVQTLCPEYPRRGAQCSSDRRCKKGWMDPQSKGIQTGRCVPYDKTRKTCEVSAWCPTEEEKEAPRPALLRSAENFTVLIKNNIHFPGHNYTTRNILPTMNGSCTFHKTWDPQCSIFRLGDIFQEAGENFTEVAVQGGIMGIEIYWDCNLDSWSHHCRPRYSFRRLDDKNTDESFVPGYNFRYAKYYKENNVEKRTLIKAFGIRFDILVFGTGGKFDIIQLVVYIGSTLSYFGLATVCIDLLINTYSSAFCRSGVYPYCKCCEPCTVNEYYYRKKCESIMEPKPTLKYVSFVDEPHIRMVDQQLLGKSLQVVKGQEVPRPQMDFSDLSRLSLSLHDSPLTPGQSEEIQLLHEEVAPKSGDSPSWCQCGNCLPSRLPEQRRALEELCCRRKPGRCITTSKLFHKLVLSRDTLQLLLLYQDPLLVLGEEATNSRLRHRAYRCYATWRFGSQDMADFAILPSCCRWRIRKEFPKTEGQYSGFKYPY

P2X purinoceptor 7 [17] = molecular target: T4, P2X purinoceptor 7 (Mus musculus, UniProt Q9Z1M0); test: Antagonist activity at mouse P2X7 receptor expressed in HEK293 cells assessed as inhibition of ATP-induced receptor pore formation by propidium iodide dye uptake based fluorescence analysis; assay type: cell-based
T4 sequence (Q9Z1M0 whole entry): T3 sequence (whole entry)

[18] = Half life in BALB/c mouse at 10 mg/kg, po measured for 24 hrs by LC-MS/MS analysis; assay type: ADME, organism-based; settings: in vivo
[19] = Cmax in BALB/c mouse at 10 mg/kg, po measured for 24 hrs by LC-MS/MS analysis; assay type: ADME, organism-based; parameters: time 24 hrs, dose 10 mg/kg, route po; settings: in vivo
[20] = Half life in BALB/c mouse at 10 mg/kg, ip measured for 24 hrs by LC-MS/MS analysis; assay type: ADME, organism-based; settings: in vivo
[21] = molecular target: T3, P2X purinoceptor 7 (Mus musculus); test: Antagonist activity at mouse P2X7 receptor expressed in HEK293 cells assessed as inhibition of ATP-induced receptor pore formation at 200 nM by propidium iodide dye uptake based fluorescence analysis; assay type: cell-based; settings: filed as antagonist
[22] = Half life in BALB/c mouse at 10 mg/kg, iv measured for 24 hrs by LC-MS/MS analysis; assay type: ADME, organism-based; settings: in vivo
[23] = Clearance in BALB/c mouse at 10 mg/kg, po measured for 24 hrs by LC-MS/MS analysis; assay type: ADME, organism-based; settings: in vivo
P2X purinoceptor 7 [24] = molecular target: T2, P2X purinoceptor 7; test: Antagonist activity at P2X7 receptor in human THP-1 cells assessed as inhibition of ATP-induced IL-1beta secretion pretreated with LPS for 3 hrs followed by incubation with compound for 40 mins followed by treatment with ATP for 1 hr by ELISA; assay type: cell-based
[25] = AUC(0 to t) in BALB/c mouse at 10 mg/kg, po measured for 24 hrs by LC-MS/MS analysis; assay type: ADME, organism-based; parameters: time 24 hrs, dose 10 mg/kg, route po; settings: in vivo
[26] = Half life in human liver microsomes; assay type: ADME, Microsome
[27] = Tmax in BALB/c mouse at 10 mg/kg, po measured for 24 hrs by LC-MS/MS analysis; assay type: ADME, organism-based; settings: in vivo
Mus musculus [28] = test: Reno-protective activity against LPS-induced acute kidney injury C57BL/6J mouse model assessed as decrease in BUN level at 10 mg/kg, ip administered twice at 30 mins prior to LPS challenge and 8 hrs post-LPS challenge and measured at 16 hrs post-LPS challenge; assay type: functional, organism-based; settings: time 16.5 hrs
[29] = AUC(0 to t) in BALB/c mouse at 10 mg/kg, iv measured for 24 hrs by LC-MS/MS analysis; assay type: ADME, organism-based; parameters: time 24 hrs, dose 10 mg/kg, route iv; settings: in vivo
[30] = molecular target: T1, P2X purinoceptor 7 (Homo sapiens); test: Antagonist activity at human P2X7 receptor expressed in HEK293 cells assessed as inhibition of ATP-induced receptor pore formation at 1 uM by propidium iodide dye uptake based fluorescence analysis; assay type: cell-based; settings: filed as antagonist
[31] = AUC(0 to t) in BALB/c mouse at 10 mg/kg, ip measured for 24 hrs by LC-MS/MS analysis; assay type: ADME, organism-based; parameters: dose 10 mg/kg, time 24 hrs, route ip; settings: in vivo
[32] = molecular target: T1, P2X purinoceptor 7 (Homo sapiens); test: Antagonist activity at human P2X7 receptor expressed in HEK293 cells assessed as inhibition of ATP-induced receptor pore formation at 10 uM by propidium iodide dye uptake based fluorescence analysis; assay type: cell-based; settings: filed as antagonist
[33] = molecular target: T3, P2X purinoceptor 7 (Mus musculus); test: Antagonist activity at mouse P2X7 receptor expressed in HEK293 cells assessed as inhibition of ATP-induced receptor pore formation at 10 uM by propidium iodide dye uptake based fluorescence analysis; assay type: cell-based; settings: filed as antagonist
P2X purinoceptor 7 [34] = molecular target: T2, P2X purinoceptor 7; test: Antagonist activity at human P2X7 receptor

CS(=O)(=O)c1ccc(-c2ncc(C(=O)NCc3cn(-c4cc(Cl)ccn4)nn3)s2)cc1
Activity (Mus musculus [1]): Active
CLint scaled [2]: < 12 mL/min/kg
bioavailability [3]: 37.3%
Activity (HEK293 [4]): Non-Toxic
half-life [5]: > 2 h
Cmax [6]: 1470 ng/mL
CLint scaled [7]: < 12 mL/min/kg
Cmax [8]: 25800 ng/mL
Activity (THP-1): Non-Toxic
Activity (HEK293 [9]): Non-Toxic
inhibition [10]: 38.2%
CL/F [11]: 13.5 mL/min/kg
Tmax [12]: 4.8 min
clearance [13]: 2 mL/min/kg
Tmax [14]: 4.67 h
IC50 (P2X purinoceptor 7 [15]): 297 nM
inhibition [16]: 100%
IC50 (P2X purinoceptor 7 [17]): 26.9 nM
half-life [18]: 2.1 h
Cmax [19]: 6500 ng/mL
half-life [20]: 3.98 h
inhibition [21]: 101%
half-life [22]: 4.94 h
CL/F [23]: 5.83 mL/min/kg
IC50 (P2X purinoceptor 7 [24]): 635 nM
AUC(0-t) at 24 h [25]: 29100 ng·h/mL
half-life [26]: > 2 h
Tmax [27]: 2 h
Activity (Mus musculus [28]): Active
AUC(0-t) at 24 h [29]: 77900 ng·h/mL
inhibition [30]: 53.6%
AUC(0-t) at 24 h [31]: 12000 ng·h/mL

O=C(NCC1(N2CCN(c3ccccc3)CC2)CCOCC1)c1cccnc1Sc1ccccc1
Activity (Mus musculus [1]): Active
CLint scaled [2]: 40.9 mL/min/kg
bioavailability [3]: 49.9%
half-life [5]: 1.03 h
CLint scaled [7]: 88.2 mL/min/kg
inhibition [32]: 92%
Cmax [8]: 516 ng/mL
inhibition ([10]; filed as antagonist): 93.8%
Tmax [12]: 4.8 min
clearance [13]: 538 mL/min/kg
inhibition [33]: 89%
inhibition [16]: 92%
half-life [18]: 0.8 h
Cmax [19]: 270 ng/mL
inhibition [21]: 87.3%
half-life [22]: 0.77 h
CL/F [23]: 1080 mL/min/kg
IC50 (P2X purinoceptor 7 [24]): < 30 nM
AUC(0-t) at 24 h [25]: 155 ng·h/mL
half-life [26]: 0.709 h
Tmax [27]: 0.08 h
Activity (Mus musculus [28]): Active
AUC(0-t) at 24 h [29]: 310 ng·h/mL
inhibition [30]: 95.2%

CC1=C(C(c2ccc(Cl)cc2)n2cc(COCc3ccco3)nn2)C(=O)c2ccccc2C1=O (stereo not drawn)
IC50 (P2X purinoceptor 7 [34]): 103 nM

O=C(NCc1ccc(Cl)cc1Cl)C1CCC(=O)N1c1ccoc1 (stereo not drawn)
IC50 (P2X purinoceptor 7 [34]): 200 nM
